Laboratory results from patent US7902235B2 (priority 2004, dated 2011).

system: tripeptidyl-peptidase 1 (TPP-I); conditions: patient-derived LINCL cell line, compound heterozygous Arg208Stop and a rare nonsense mutation; maximal; cited from earlier work

For gentamicin, the “TPP-I restored, of normal levels” value is given as “approximately 7%”.

system: not given; conditions: not given

Point of comparison: `NC(=O)NC(=O)c1cccc(-c2noc(-c3ccccc3F)n2)c1` [Compound 6], melting point 240 °C. Against it:
- CC(OC(=O)NC(=O)c1cccc(-c2noc(-c3ccccc3F)n2)c1)C(C)(C)C (racemic) [Compound 37, (±)-{3-[5-(2-Fluorophenyl)-[1,2,4]oxadiazol-3-yl]benzoyl}carbamic Acid 1,2,2-trimethylpropyl Ester] — lower, 170 to 173 °C
- COC(=O)NC(=O)c1cccc(-c2noc(-c3ccccc3F)n2)c1 [Compound 1] — lower, 176 to 177 °C
- CCOC(=O)NC(=O)c1cccc(-c2noc(-c3ccccc3F)n2)c1 [Compound 2] — lower, 160.5 to 162 °C
- CC(C)OC(=O)NC(=O)c1cccc(-c2noc(-c3ccccc3F)n2)c1 [Compound 3] — lower, 172 to 174 °C
- O=C(NC(=O)c1cccc(-c2noc(-c3ccccc3F)n2)c1)NC1CC1 [Compound 4] — lower, 226 to 227.5 °C
- CONC(=O)NC(=O)c1cccc(-c2noc(-c3ccccc3F)n2)c1 [Compound 5] — lower, 206 to 207 °C
- O=C(NCCF)NC(=O)c1cccc(-c2noc(-c3ccccc3F)n2)c1 [Compound 7] — lower, 233 to 234 °C
- O=C(NC(=O)c1cccc(-c2noc(-c3ccccc3F)n2)c1)Nc1ncccn1 [Compound 8] — higher, 247 to 249 °C
- O=C(NC(=O)c1cccc(-c2noc(-c3ccccc3F)n2)c1)Nc1ccccn1 [Compound 9] — higher, 252 to 254 °C
- O=C(NC(=O)c1cccc(-c2noc(-c3ccccc3F)n2)c1)Oc1ccccc1 [Compound 10] — higher, 252 to 254 °C
- O=C(NC(=O)c1cccc(-c2noc(-c3ccccc3F)n2)c1)OC1CCOCC1 [Compound 11] — lower, 177.5 to 179 °C
- O=C(NC(=O)c1cccc(-c2noc(-c3ccccc3F)n2)c1)OCCN1CCOCC1 [Compound 12] — lower, 223 to 224 °C
- Cc1ccc(S(=O)(=O)NC(=O)NC(=O)c2cccc(-c3noc(-c4ccccc4F)n3)c2)cc1 [Compound 15] — lower, 188 to 191 °C
- O=C(NC(=O)c1cccc(-c2noc(-c3ccccc3F)n2)c1)OCCc1ccccc1 [Compound 16] — lower, 129 to 130 °C
- O=C(NC(=O)c1cccc(-c2noc(-c3ccccc3F)n2)c1)OC1CCCCC1 [Compound 17] — lower, 172 to 174 °C
- O=C(NC(=O)c1cccc(-c2noc(-c3ccccc3F)n2)c1)OCC1CCCCC1 [Compound 18] — lower, 134 to 138 °C
- O=C(NC(=O)c1cccc(-c2noc(-c3ccccc3F)n2)c1)OCc1ccccc1 [Compound 19] — lower, 133 to 134 °C
- CCCOC(=O)NC(=O)c1cccc(-c2noc(-c3ccccc3F)n2)c1 [Compound 20] — lower, 152 to 155 °C
- COCCOC(=O)NC(=O)c1cccc(-c2noc(-c3ccccc3F)n2)c1 [Compound 21] — lower, 139 to 141 °C
- O=C(NC(=O)c1cccc(-c2noc(-c3ccccc3F)n2)c1)OC1CCCC1 [Compound 22] — lower, 187 to 190 °C
- O=C(NC(=O)c1cccc(-c2noc(-c3ccccc3F)n2)c1)Oc1cccc2c1CCCC2 [Compound 23] — lower, 199 to 202 °C
- O=C(NC(=O)N1CCCC1)c1cccc(-c2noc(-c3ccccc3F)n2)c1 [Compound 24] — lower, 178 to 180 °C
- O=C(NC(=O)N1CCOCC1)c1cccc(-c2noc(-c3ccccc3F)n2)c1 [Compound 25, Morpholine-4-carboxylic Acid 3-[5-(2-fluorophenyl)-[1,2,4]oxadiazol-3-yl]benzoylamide] — lower, 190 to 194 °C
- CCN(CC)C(=O)NC(=O)c1cccc(-c2noc(-c3ccccc3F)n2)c1 [Compound 26] — lower, 161 to 163 °C
- Cc1cc(C)cc(NC(=O)NC(=O)c2cccc(-c3noc(-c4ccccc4F)n3)c2)c1 [Compound 27] — higher, 247 to 250 °C
- O=C(NC(=O)N1CCN(c2ccccc2)CC1)c1cccc(-c2noc(-c3ccccc3F)n2)c1 [Compound 28] — lower, 169 to 173 °C
- CC(OC(=O)NC(=O)c1cccc(-c2noc(-c3ccccc3F)n2)c1)c1ccccc1 (centres unmarked) [Compound 30] — lower, 140 to 141 °C
- CC(OC(=O)NC(=O)c1cccc(-c2noc(-c3ccccc3F)n2)c1)C1CC1 (centres unmarked) [Compound 31] — lower, 150 to 152 °C
- O=C(NC(=O)c1cccc(-c2noc(-c3ccccc3F)n2)c1)OC1CCCc2ccccc21 (centres unmarked) [Compound 32] — lower, 168 to 170 °C
- O=C(NC(=O)c1cccc(-c2noc(-c3ccccc3F)n2)c1)OC(c1ccccc1)C(F)(F)F (centres unmarked) [Compound 33] — lower, 164 to 165 °C
- COCC(C)OC(=O)NC(=O)c1cccc(-c2noc(-c3ccccc3F)n2)c1 (centres unmarked) [Compound 34] — lower, 141 to 143 °C
- O=C(NC(=O)c1cccc(-c2noc(-c3ccccc3F)n2)c1)OC1CCOC1 (centres unmarked) [Compound 35] — lower, 197 to 200 °C
- O=C(NC(=O)c1cccc(-c2noc(-c3ccccc3F)n2)c1)OC1Cc2ccccc2C1 [Compound 36] — lower, 165 to 168 °C
- CC(C)C(C)OC(=O)NC(=O)c1cccc(-c2noc(-c3ccccc3F)n2)c1 (centres unmarked) [Compound 38] — lower, 168 to 170 °C
- CC(C)CC(C)OC(=O)NC(=O)c1cccc(-c2noc(-c3ccccc3F)n2)c1 (centres unmarked) [Compound 39] — lower, 108 to 109 °C
- CC(OC(=O)NC(=O)c1cccc(-c2noc(-c3ccccc3F)n2)c1)c1ccc(C(F)(F)F)cc1 (centres unmarked) [Compound 40] — lower, 161 to 163 °C
- O=C(NC(=O)c1cccc(-c2noc(-c3ccccc3F)n2)c1)OC1CCN(Cc2ccccc2)CC1 [Compound 42] — lower, 132 to 134 °C
- CN1C(=O)C[C@H](OC(=O)NC(=O)c2cccc(-c3noc(-c4ccccc4F)n3)c2)C1=O [Compound 43] — lower, 120 to 123 °C
- C[C@@H](OC(=O)NC(=O)c1cccc(-c2noc(-c3ccccc3F)n2)c1)C(N)=O [Compound 44] — lower, 193 to 196 °C
- CC(=O)NC(=O)c1cccc(-c2noc(-c3ccccc3F)n2)c1 [Compound 45, N-Acetyl-3-[5-(2-fluorophenyl)-[1,2,4]oxadiazol-3-yl]benzamide] — lower, 119 to 120 °C
- CC(C)C(=O)NC(=O)c1cccc(-c2noc(-c3ccccc3F)n2)c1 [Compound 46, 3-[5-(2-Fluorophenyl)-[1,2,4]oxadiazol-3-yl]-N-isobutyrl-benzamide] — lower, 183 to 184 °C
- O=C(NC(=O)C(F)(F)F)c1cccc(-c2noc(-c3ccccc3F)n2)c1 [Compound 47] — lower, 119 to 120 °C
- CC(OC(=O)NC(=O)c1cccc(-c2noc(-c3ccccc3F)n2)c1)c1ccncc1 (centres unmarked) [Compound 48] — lower, 180 to 183 °C
- O=C(NC(=O)c1cccc(-c2noc(-c3ccccc3F)n2)c1)O[C@@H]1CCOC1 [Compound 49] — lower, 152 to 156 °C
- CC(OC(=O)NC(=O)c1cccc(-c2noc(-c3ccccc3F)n2)c1)c1ccc(F)cc1 (centres unmarked) [Compound 51] — lower, 116 to 118 °C
